Counter-ions that a name gives are not always drawn.
Assays:
[1] = biological target: T1, Alpha-ketoglutarate-dependent dioxygenase FTO (Homo sapiens, UniProt Q9C0B1)
[2] = biological target: T1, Alpha-ketoglutarate-dependent dioxygenase FTO; remark: listed apart in the source
[3] = cells; details: Homo sapiens, AML1
[4] = biological target: RNA demethylase ALKBH5 (Homo sapiens, UniProt Q6P6C2)
[5] = biological target: T2, N6-adenosine-methyltransferase catalytic subunit (Homo sapiens, UniProt Q86U44)
[6] = biological target: T2, N6-adenosine-methyltransferase catalytic subunit; remark: listed apart in the source
[7] = tested on: Huh-7; assay: cells; details: Homo sapiens
[8] = biological target: T2, N6-adenosine-methyltransferase catalytic subunit; remark: listed apart in the source
[9] = biological target: T1, Alpha-ketoglutarate-dependent dioxygenase FTO; remark: listed apart in the source
[10] = biological target: N(6)-adenosine-methyltransferase catalytic subunit METTL3 (Mus musculus, UniProt Q8C3P7)
[11] = biological target: T3, METTL3/METTL14 (Homo sapiens, UniProt Q86U44)
[12] = biological target: T3, METTL3/METTL14; remark: listed apart in the source
[13] = biological target: T2, N6-adenosine-methyltransferase catalytic subunit; remark: listed apart in the source
[14] = tested on: ECa-109 cell line; assay: cells; details: Homo sapiens, ECa-109, 72 h
[15] = tested on: HeLa; assay: cells; details: Homo sapiens, 24 h
[16] = tested on: OCI-AML2; assay: cells; details: Homo sapiens
[17] = biological target: YTH domain-containing protein 1 (Homo sapiens, UniProt Q96MU7)
[18] = biological target: T3, METTL3/METTL14; remark: listed apart in the source

## O=C(O)c1ccccc1-c1c2cc(Cl)c(=O)cc-2oc2cc(O)c(Cl)cc12
[1]
  IC50: 640 nM

## O=C(O)CC[C@@H](O)C(=O)O
[2]
  IC50: 133000 nM

## Cc1noc(C)c1-c1cc(Cl)c(Nc2ccccc2C(=O)NO)c(Cl)c1
[3]
  GI50: 800 nM

## Cc1noc(C)c1-c1cc(Cl)c(Nc2ccccc2C(=O)O)c(Cl)c1
[3]
  GI50: 23000 nM

## CCCc1c(C)nc2c3ccccc3oc(=S)n12
[4]
  IC50: 10000 nM

## Cn1ccc(-c2cn([C@@H]3O[C@H](COc4ccc5ccc(N6CCC6)nc5c4)[C@@H](O)[C@@H]3F)c3ncnc(N)c23)n1
[5]
  IC50: < 10 nM
[6]
  IC50: < 1000 nM
[7]
  GI50: < 1000 nM
[8]
  IC50: < 10 nM

## CCc1cc(N(C)CCOC)c2ccc(CCc3cncc(-n4cc(-c5ccn(C)n5)c5c(N)ncnc54)c3)cc2n1
[5]
  IC50: < 10 nM
[6]
  IC50: < 1000 nM
[7]
  GI50: < 1000 nM
[8]
  IC50: < 10 nM

## Nc1ncnc2c1ncn2[C@@H]1O[C@H](C(=O)NCCCNC(=O)c2ccccn2)[C@@H](O)[C@H]1O
[9]
  IC50: 1500 nM

## O=C(NCc1cn2cc(CNCC3CCCCC3)ccc2n1)c1cc(=O)n2ccccc2n1
[10]
  IC50: 2810 nM
[7]
  GI50: 600 nM

## COc1cc(-c2cn(Cc3cn4cc(CNCC5CCC5)ccc4n3)nn2)c2cn[nH]c2c1
[11]
  IC50: < 5 nM
[7]
  GI50: 160 nM

## CC1(C)CCN(Cc2ccc3nc(Cn4cc(-c5cc(Br)cc6[nH]ncc56)nn4)cn3c2)CC1
[11]
  IC50: 8 nM

## Clc1cc(-c2cn(Cc3cn4cc(CNCC5CCC5)ccc4n3)nn2)c2cn[nH]c2c1
[12]
  IC50: 25 nM
[11]
  IC50: < 5 nM
[7]
  GI50: 210 nM

## O=C(O)c1ccccc1OCCc1cn(-c2ccc(-c3c(Cl)cccc3Cl)cc2)c2ccc(-c3ccc(F)cc3)cc12
[6]
  IC50: 4000 nM
[7]
  GI50: 14600 nM
[8]
  IC50: 2810 nM
[13]
  IC50: 4000 nM

## CCOC(=O)c1ccccc1Nc1c(Cl)ccc(C)c1Cl
[5]
  IC50: 7000 nM

## COc1ncc(-c2ccc3sc(N)nc3c2)cn1
[2]
  IC50: 3400 nM

## COc1c(C)cnc(Cn2cc(CNC(=O)c3c(F)c(F)c(F)c(F)c3F)nn2)c1C
[14]
  IC50: 830 nM

## CCS(=O)(=O)Nc1oc(-c2ccc(Cl)cc2)c(O)c1O
[15]
  IC50: 8700 nM

## C(=N\NC1=NCCN1)/c1c2ccccc2c(/C=N/NC2=NCCN2)c2ccccc12 [BISANTRENE]
[16]
  IC50: 100 nM

## Cc1c(-c2ccc(-c3ccccc3F)cc2)nc2ccc(F)cc2c1C(=O)O [BREQUINAR]
[16]
  IC50: 200 nM

## CC(=O)Oc1cccc2c1C(=O)c1c(OC(C)=O)cc(C(=O)O)cc1C2=O [DIACEREIN]
[9]
  IC50: 1500 nM

## O=c1c2ccccc2[se]n1-c1ccccc1 [EBSELEN]
[17]
  IC50: 1600 nM

## Cc1ccc(Cl)c(Nc2ccccc2C(=O)O)c1Cl [MECLOFENAMIC ACID]
[5]
  IC50: 8000 nM

## N=C(N)c1ccc2cc(OC(=O)c3ccc(N=C(N)N)cc3)ccc2c1 [NAFAMOSTAT MESYLATE]
[9]
  IC50: 13800 nM

## Nc1ncnc2c1ncn2[C@@H]1O[C@H](CSCC[C@H](N)C(=O)O)[C@@H](O)[C@H]1O [S-ADENOSYLHOMOCYSTEINE]
[18]
  IC50: 520 nM

## O=C(O)[C@H]1O[C@@H](Oc2cc3oc(-c4ccc(O)cc4)cc(=O)c3c(O)c2O)[C@H](O)[C@@H](O)[C@@H]1O [SCUTELLARIN]
[11]
  IC50: 19900 nM

## Nc1ncnc2c1ncn2[C@@H]1O[C@H](C[C@@H](N)CC[C@H](N)C(=O)O)[C@@H](O)[C@H]1O [SINEFUNGIN]
[18]
  IC50: 1300 nM
[7]
  GI50: 24800 nM
